Source: paper PMC4942781, “A sodium channel inhibitor ISTX-I with a novel structure provides a new hint at the evolutionary link between two toxin folds” (Scientific Reports, 2016)
“Also recorded” adds a separate entry of the source. Bridge positions count the residues as written; N and C are the ends. Ends that are not written are not given here.

Key:
[1] = system: hNav1.1; test: Whole-cell patch clamp, hNav1.1 in HEK293T cells; format: cell-based, human; conditions: 10 μM ISTX-I; 50 ms step to -10 mV from -80 mV
Protocol: (§1) HEK293T (human embryonic kidney) cells were grown in DMEM containing 10% heat-inactivated FBS at 37 °C in a 5% CO2 incubator. The cDNA genes encoding human (h)Nav1.1, (h)Nav1.2, (h)Nav1.3, (h)Nav1.4, (h)Nav1.5, (h)Nav1.6 and (h)Nav1.7 were transiently transfected into HEK293T cells for electrophysiology using Lipofectamine-2000 (Invitrogen) in serum-reduced medium (Opti-MEM, Invitrogen) following the manufacturer’s instructions. The auxiliary subunits hβ1 and enhanced green florescent protein plasmids were cotransfected into HEK293T cells to increase the current density and efficiently select cells with green florescent protein for whole-cell patch-clamp recordings. After 12 h, the HEK293T cells were used for electrophysiological analysis.
(§2) DRG neurons with a large diameter (>[…]) and those with a relatively small diameter (<[…]) were chosen by measuring TTX-s and TTX-r currents, respectively. […] Potassium, calcium, and sodium currents were recorded in experimental cells using whole-cell patch-clamp recordings at room temperature, which were performed with an HEK EPC10 patch-clamp amplifier. […] Experimental data were acquired and analyzed using the programs patch master and Sigmaplot 9.0 (Sigma, USA). […]
(§3) Currents were recorded from experimental cells using whole-cell patch clamptechnique at room temperature (22–25 °C). […]

[2] = target: T1, hNav1.7 (Homo sapiens, UniProt Q15858); test: Whole-cell patch clamp, hNav1.7 in HEK293T cells; format: cell-based
T1 construct: expressed in transfected cells; host or cells: HEK293T cells, transient transfection (Lipofectamine-2000)
T1 sequence (Q15858 whole entry): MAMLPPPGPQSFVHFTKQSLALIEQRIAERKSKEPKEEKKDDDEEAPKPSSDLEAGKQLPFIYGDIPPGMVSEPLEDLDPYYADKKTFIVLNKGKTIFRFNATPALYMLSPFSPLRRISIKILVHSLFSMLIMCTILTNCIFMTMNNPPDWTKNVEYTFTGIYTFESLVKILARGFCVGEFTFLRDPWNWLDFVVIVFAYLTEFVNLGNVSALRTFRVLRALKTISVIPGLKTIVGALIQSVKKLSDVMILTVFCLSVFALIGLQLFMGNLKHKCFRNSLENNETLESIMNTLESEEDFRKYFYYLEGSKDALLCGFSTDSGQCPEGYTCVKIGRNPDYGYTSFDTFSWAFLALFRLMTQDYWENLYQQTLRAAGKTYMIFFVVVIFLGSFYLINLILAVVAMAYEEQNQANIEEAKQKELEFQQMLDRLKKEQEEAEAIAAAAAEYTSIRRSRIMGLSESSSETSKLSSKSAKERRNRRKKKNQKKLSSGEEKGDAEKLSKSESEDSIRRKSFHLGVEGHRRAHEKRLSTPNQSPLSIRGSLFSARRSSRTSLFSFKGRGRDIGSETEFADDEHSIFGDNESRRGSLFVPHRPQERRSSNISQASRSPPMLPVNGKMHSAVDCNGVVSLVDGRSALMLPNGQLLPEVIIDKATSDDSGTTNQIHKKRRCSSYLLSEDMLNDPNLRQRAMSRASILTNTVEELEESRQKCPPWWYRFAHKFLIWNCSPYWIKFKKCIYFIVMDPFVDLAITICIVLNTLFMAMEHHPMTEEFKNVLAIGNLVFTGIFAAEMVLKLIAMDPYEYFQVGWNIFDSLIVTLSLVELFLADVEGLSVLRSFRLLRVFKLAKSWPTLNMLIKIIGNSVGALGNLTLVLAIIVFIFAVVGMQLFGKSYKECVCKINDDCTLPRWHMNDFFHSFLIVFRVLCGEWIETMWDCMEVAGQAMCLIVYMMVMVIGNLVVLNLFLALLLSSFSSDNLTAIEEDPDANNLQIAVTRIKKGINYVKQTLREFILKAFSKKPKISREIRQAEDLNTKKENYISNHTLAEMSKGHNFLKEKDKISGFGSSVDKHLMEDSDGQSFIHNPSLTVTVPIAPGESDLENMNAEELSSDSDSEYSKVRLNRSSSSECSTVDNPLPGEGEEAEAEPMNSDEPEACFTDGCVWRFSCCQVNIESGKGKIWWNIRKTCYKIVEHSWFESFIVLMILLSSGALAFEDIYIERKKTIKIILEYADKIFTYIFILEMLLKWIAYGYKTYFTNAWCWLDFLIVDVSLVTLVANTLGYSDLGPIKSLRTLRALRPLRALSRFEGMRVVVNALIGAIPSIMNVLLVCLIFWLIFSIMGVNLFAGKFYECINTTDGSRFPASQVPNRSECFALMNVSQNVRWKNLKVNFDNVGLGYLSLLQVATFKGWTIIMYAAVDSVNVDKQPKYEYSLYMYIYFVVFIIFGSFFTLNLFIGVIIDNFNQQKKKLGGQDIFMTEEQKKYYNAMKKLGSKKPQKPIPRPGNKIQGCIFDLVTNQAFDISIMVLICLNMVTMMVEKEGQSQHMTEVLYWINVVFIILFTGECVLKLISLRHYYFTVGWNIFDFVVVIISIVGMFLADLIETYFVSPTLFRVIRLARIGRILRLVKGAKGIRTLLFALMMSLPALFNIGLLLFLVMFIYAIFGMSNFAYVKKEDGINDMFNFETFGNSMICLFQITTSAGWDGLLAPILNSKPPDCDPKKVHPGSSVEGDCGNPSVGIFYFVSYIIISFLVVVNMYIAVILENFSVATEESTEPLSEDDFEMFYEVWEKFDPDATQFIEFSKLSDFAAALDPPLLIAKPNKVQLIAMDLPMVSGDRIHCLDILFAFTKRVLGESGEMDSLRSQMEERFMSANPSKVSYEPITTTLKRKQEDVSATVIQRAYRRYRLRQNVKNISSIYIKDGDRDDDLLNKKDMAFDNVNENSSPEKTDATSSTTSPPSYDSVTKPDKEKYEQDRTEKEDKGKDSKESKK
T1 sequence (Q07699 19-218, further chain): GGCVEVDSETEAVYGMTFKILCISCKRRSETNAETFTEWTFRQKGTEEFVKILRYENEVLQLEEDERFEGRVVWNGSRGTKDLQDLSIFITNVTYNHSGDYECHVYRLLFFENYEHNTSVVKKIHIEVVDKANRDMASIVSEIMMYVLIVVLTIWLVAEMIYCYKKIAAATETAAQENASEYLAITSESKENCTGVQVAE
Protocol: Figure 4 Effects of ISTX-I expressed in HEK293 cells. Current traces were evoked with a 50ms step depolarization to −10 mV from a holding potential of −80 mV every 5s. […] (E) Steady-state inactivation of the hNav1.7 channel before (solid circles) and after (open circles) the application of 10 μM ISTX-I (n = 5).
The effects of ISTX-I on the activation and inactivation kinetics of hNav1.7 were also analyzed. The current-voltage relationships were determined for Nav1.7 channels using step depolarization ranging from −80 to +40 mV from a holding potential of −80 mV.
as §1
DRG neurons with a large diameter (>[…]) and those with a relatively small diameter (<[…]) were chosen by measuring TTX-s and TTX-r currents, respectively. Meanwhile, TTX (final concentration at 100 nM) was used to separate TTX-r sodium currents from TTX-s sodium currents. Suction pipettes (2.0–4.0 MΩ) were made of borosilicate glass capillary tubes with two-step pulling on a vertical micropipette puller (PC-10, Narishige). Potassium, calcium, and sodium currents were recorded in experimental cells using whole-cell patch-clamp recordings at room temperature, which were performed with an HEK EPC10 patch-clamp amplifier. The P/4 protocol was used to subtract linear capacitive and leakage currents. Experimental data were acquired and analyzed using the programs patch master and Sigmaplot 9.0 (Sigma, USA). All of the data points represent the mean ± SE (n = the number of separate experimental cells examined). Dose-response curves were fitted using the following Hill logistic equation: y = 1 − (1 − fmax)/[1 + ([Tx]/IC50)^n] in which n is an empirical Hill coefficient and fmax is the fraction of current resistant to inhibition at high toxin (Tx) concentrations.
Electrophysiological studies.
Currents were recorded from experimental cells using whole-cell patch clamptechnique at room temperature (22–25 °C). The patch pipettes were fabricated from borosilicate glass tubing using a two-stage vertical microelectrode puller (PC-10, Narishige, Japan). […]

[3] = system: hNav1.4; test: Whole-cell patch clamp, hNav1.4 in HEK293T cells; format: cell-based, human; conditions: 10 μM ISTX-I; 50 ms step to -10 mV from -80 mV
Protocol: as §1, §2, §3

[4] = system: hNav1.2; test: Whole-cell patch clamp, hNav1.2 in HEK293T cells; format: cell-based, human; conditions: 10 μM ISTX-I; 50 ms step to -10 mV from -80 mV
Protocol: as §1, §2, §3

[5] = system: hNav1.6; test: Whole-cell patch clamp, hNav1.6 in HEK293T cells; format: cell-based, human; conditions: 10 μM ISTX-I; 50 ms step to -10 mV from -80 mV
Protocol: as §1, §2, §3

[6] = 5 μM ISTX-I, step depolarization from −80 to +40 mV, holding −80 mV

## LCSENGDCAADECCVDTVFEGDMVTRSCEKTTGNFTECPGLTPIA (disulfide 2-14, 8-28, 13-38) [ISTX-I]
[1]
  effect on hNav1.1: no effect
[2]; 1 μM ISTX-I, 50 ms step to −10 mV from −80 mV every 5 s
  effect on hNav1.7 channel currents: significantly depressed; also recorded: Inhibition of hNav1.7
[2]; [6]
  shift of conductance–voltage (G-V) curve: no effect; also recorded: did not shift
  shift of current-voltage (I-V) curve: no effect; also recorded: did not shift
[2]; 10 μM ISTX-I, hNav1.7, n = 5
  shift of steady-state inactivation curve: approximately −10 mV
[3]
  effect on hNav1.4: no effect
[4]
  effect on hNav1.2: no effect
[5]
  inhibition of Nav1.6 currents: 10%
